Consider two compounds from patent publication US20090220425A1, “Method to Quantitatively Measure Effect of Psychotropic Drugs on Sensory Discrimination” (DREXEL UNIVERSITY, priority 2006, published 2009).

The subject of assay [1] is neurons of the infragranular layer of the primary somatosensory cortex of the rat. The assay is described as follows: Classical neurophysiological measures of somatosensory responses (sensory mapping, magnitude and latency of neural responses to touch stimuli) before and after drug. It counts as in vivo.
Assay [2] has as its system ensemble of neurons in the deep layers of the forelimb rat primary somatosensory cortex. Kind of assay: PSTH-based classification of stimulus location from single-trial responses of neuron ensembles (information representation). In kind it is in vivo. As to conditions: for classification performance (bits of information) after drug compared to saline: one ensemble of neurons, touch-stimuli to contralateral body, every bin size tested, FIGS. 1A and 1B.

In the case of `Clc1cccc(N2CCNCC2)c1` [MCPP, meta-chlorophenylpiperazine], the “effectiveness of the low dose” value in assay [1] (MCPP 0.075 (low) mg/kg, intraperitoneal (IP), dissolved in saline) is “effective”. Also, the “classification performance (bits of information) after drug compared to saline” value in assay [2] is reported as “increase for every bin size tested”.
Turning to `CNCCC(Oc1ccc(C(F)(F)F)cc1)c1ccccc1` (stereo not shown) [fluoxetine], in assay [1] (FLU 10 (medium) mg/kg, IP injection, dissolved in saline), the “effectiveness of the medium dose” value is reported as “effective”. The “number of spikes per stimulus after drug” value in assay [1] (fluoxetine 10 mg/kg, two rats, 0.67 spikes per stimulus before drug, significant increase, p<0.001) came out at 1.05 spikes per stimulus. Further, in assay [1] (fluoxetine 10 mg/kg, two rats, 20 msec before drug, decrease did not reach significance (p=0.11)), the “latency of the response after drug” value was determined as 17.5 ms. Moreover, the “amount of information represented by the ensemble after administration” value in assay [2] (binsize from 40 ms (spike-count) to 1 ms (spike-timing), single-trial discrimination of stimulus location) was “greater”. Moreover, the “classification performance (bits of information) after drug compared to saline” value in assay [2] is “increased for every bin size tested”.
